Each structure is given as a SMILES string.

Here are results for twelve compounds from US8691865B2 (AbbVie Inc., priority 2008, dated 2014).

Sequence of human Cav2.2 (Q00975 whole entry): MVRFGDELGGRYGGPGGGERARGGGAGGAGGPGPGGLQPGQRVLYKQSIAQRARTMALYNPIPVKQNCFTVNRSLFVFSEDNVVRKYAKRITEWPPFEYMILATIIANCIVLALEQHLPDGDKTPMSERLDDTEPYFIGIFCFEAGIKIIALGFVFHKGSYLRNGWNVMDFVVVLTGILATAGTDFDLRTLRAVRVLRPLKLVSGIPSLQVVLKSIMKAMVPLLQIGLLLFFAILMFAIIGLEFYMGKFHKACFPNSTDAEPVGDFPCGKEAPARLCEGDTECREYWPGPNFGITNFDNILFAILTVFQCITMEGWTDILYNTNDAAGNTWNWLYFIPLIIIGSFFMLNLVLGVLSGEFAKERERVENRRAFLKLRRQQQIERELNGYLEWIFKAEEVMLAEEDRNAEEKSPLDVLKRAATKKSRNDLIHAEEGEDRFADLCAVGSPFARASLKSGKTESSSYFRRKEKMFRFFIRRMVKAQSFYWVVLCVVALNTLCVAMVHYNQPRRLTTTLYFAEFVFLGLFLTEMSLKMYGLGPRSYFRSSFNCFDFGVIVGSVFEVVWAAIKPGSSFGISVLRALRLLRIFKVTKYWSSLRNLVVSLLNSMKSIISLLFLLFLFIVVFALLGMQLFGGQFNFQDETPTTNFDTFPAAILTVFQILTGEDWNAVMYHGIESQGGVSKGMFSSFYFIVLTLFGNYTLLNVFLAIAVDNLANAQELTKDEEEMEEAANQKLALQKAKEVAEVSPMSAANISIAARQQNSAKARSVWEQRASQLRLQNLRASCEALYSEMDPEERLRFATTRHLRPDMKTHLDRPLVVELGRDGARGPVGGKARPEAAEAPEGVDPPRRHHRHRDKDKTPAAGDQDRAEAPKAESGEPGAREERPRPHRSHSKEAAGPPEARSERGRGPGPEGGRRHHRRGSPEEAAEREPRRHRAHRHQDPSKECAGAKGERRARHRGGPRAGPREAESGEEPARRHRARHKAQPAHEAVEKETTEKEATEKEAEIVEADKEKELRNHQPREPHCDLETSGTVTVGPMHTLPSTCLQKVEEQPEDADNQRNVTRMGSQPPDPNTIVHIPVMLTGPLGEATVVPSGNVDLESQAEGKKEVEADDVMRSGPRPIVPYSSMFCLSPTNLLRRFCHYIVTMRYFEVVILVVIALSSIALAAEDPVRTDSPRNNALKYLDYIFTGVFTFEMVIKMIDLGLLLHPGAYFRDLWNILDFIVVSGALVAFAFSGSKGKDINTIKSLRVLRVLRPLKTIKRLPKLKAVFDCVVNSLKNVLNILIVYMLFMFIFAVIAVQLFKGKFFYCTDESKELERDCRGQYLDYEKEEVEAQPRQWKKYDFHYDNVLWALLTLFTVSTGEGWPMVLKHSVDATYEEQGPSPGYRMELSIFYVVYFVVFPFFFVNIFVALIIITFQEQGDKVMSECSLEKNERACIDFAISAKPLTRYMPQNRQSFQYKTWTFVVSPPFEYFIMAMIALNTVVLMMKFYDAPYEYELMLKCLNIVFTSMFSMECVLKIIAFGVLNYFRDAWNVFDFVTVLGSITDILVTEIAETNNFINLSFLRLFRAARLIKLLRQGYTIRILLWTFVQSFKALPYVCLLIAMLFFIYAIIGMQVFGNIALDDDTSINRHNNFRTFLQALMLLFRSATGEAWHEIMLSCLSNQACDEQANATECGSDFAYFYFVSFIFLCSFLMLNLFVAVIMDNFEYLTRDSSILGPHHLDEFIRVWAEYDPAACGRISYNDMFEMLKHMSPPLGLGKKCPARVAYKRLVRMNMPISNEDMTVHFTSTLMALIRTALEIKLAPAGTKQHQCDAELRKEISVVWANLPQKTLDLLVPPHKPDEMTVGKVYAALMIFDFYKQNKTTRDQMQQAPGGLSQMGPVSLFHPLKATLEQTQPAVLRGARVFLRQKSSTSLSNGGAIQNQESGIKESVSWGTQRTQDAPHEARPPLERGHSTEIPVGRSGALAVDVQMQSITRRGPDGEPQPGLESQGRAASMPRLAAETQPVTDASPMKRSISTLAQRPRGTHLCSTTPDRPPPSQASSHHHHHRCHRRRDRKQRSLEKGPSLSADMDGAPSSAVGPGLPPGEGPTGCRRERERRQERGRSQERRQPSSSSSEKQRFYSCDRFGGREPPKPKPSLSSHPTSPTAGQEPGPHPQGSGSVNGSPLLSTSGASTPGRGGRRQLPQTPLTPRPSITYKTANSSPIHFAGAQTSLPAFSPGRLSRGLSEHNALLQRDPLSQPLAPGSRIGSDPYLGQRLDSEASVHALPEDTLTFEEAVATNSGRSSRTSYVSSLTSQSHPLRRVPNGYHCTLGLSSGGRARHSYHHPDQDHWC
Sequence of human Cav2.2 (P54289 25-956 partner limits assumed): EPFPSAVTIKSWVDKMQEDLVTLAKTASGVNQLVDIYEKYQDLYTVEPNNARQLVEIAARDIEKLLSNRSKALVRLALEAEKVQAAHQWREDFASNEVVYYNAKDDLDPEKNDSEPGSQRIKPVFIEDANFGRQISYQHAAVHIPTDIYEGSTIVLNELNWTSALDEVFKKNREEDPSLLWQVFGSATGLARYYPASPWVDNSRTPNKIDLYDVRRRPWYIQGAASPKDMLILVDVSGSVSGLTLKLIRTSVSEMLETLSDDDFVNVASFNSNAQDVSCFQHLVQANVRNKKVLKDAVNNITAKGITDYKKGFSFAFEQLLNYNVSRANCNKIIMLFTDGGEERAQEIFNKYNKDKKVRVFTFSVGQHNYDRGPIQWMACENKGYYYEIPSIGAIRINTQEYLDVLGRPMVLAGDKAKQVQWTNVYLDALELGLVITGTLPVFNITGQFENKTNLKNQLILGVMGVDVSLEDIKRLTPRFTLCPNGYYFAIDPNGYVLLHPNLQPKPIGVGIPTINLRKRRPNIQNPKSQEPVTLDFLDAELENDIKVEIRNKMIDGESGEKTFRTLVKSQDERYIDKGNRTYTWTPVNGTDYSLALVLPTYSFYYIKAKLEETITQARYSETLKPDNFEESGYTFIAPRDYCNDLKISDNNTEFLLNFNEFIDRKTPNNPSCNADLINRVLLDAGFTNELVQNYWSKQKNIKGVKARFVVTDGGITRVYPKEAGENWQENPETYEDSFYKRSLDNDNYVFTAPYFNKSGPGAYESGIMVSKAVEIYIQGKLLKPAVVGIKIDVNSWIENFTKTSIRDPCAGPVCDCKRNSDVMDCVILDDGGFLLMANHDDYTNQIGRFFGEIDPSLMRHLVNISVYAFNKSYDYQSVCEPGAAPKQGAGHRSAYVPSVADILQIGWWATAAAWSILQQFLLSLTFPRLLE
Sequence of human Cav2.2 (P54289 957-1103 partner limits assumed): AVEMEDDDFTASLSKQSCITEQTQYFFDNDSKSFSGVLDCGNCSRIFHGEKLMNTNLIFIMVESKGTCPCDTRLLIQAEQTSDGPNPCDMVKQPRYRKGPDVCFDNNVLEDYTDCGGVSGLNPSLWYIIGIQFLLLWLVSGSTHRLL
Sequence of human Cav2.2 (P54284 whole entry partner): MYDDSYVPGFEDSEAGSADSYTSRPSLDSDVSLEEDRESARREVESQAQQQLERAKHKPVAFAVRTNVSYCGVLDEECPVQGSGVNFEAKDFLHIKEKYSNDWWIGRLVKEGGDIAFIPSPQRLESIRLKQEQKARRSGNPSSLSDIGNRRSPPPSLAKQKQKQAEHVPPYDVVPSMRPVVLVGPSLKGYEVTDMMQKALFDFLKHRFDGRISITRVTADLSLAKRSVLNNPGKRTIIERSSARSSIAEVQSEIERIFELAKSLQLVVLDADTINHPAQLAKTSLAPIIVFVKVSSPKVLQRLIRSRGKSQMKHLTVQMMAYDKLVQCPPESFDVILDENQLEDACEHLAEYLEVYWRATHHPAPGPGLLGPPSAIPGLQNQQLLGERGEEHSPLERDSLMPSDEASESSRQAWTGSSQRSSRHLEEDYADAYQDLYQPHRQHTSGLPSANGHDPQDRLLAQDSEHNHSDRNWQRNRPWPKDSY

One assay concerns the target human Cav2.2 (Homo sapiens, UniProt Q00975). As to the kind of experiment: Assessment of calcium channel activity using FLIPR (Ca2+ influx in IMR32 cells). The format is cell-based.
Settings: not given
An outline of the steps:
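Human neuroblastoma IMR32 cells were seeded at 1−1.2×10^5 cells/well and cultured 48 h at 37 °C before FLIPR calcium influx measurement. Percent inhibition at each concentration was calculated against the no-inhibitor signal, and IC50 came from sigmoidal dose-response fits.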
With `CN[C@@H](CC(C)C)C(=O)N[C@H]1CC[C@@H]2CN(c3ccc(F)cc3C(F)(F)F)C[C@@H]21` [Example 737, N-{(3aR,4S,6aS)-2-[4-fluoro-2-(trifluoromethyl)phenyl]octahydrocyclopenta[c]pyrrol-4-yl}-N^2-methyl-L-leucinamide], the IC50 (in general, the concentration that gives 50% inhibition) came to 0.36 µM. Same read-out and setting: the same measure for `O=C(N[C@H]1CC[C@@H]2CN(c3ccc(F)cc3)C[C@@H]21)[C@@H]1C[C@@H](F)CN1` [Example 641, (4R)-4-fluoro-N-[(3aR,4S,6aS)-2-(4-fluorophenyl)octahydrocyclopenta[c]pyrrol-4-yl]-L-prolinamide]: 26.2 µM; for `COc1cccc(N2C[C@H]3CC[C@H](NC(=O)[C@@H]4C[C@@H](F)CN4)[C@H]3C2)c1` [Example 645, (4R)-4-fluoro-N-[(3aR,4S,6aS)-2-(3-methoxyphenyl)octahydrocyclopenta[c]pyrrol-4-yl]-L-prolinamide]: more than 30 µM. On the same count and under the same terms, the same measure for `CN[C@@H](CC(C)C)C(=O)N[C@@H]1CC[C@H]2CN(S(=O)(=O)c3cccc(C(F)(F)F)c3)C[C@H]21` [Example 182, N^2-methyl-N^1-((3aS,4R,6aR)-2-{[3-(trifluoromethyl)phenyl]sulfonyl}octahydrocyclopenta[c]pyrrol-4-yl)-L-leucinamide]: 1.45 µM; for `CC(C)(C)[C@H](N)C(=O)N[C@H]1CC[C@@H]2CN(c3cccc(C(F)(F)F)n3)C[C@@H]21` [Example 591, 3-methyl-N-{(3aR,4S,6aS)-2-[6-(trifluoromethyl)pyridin-2-yl]octahydrocyclopenta[c]pyrrol-4-yl}-L-valinamide]: 0.5 µM. Still for that read-out and setting: the value for `Fc1ccc2[nH]cc(CN[C@H]3CC[C@@H]4CN(c5cccc(C(F)(F)F)n5)C[C@@H]43)c2c1` [Example 678, (3aR,4S,6aS)-N-[(5-fluoro-1H-indol-3-yl)methyl]-2-[6-(trifluoromethyl)pyridin-2-yl]octahydrocyclopenta[c]pyrrol-4-amine] was 0.69 µM; that for `O=C(N[C@H]1CC[C@H]2CN(Cc3ccccc3)C[C@H]21)C1(c2ccccc2)CCCCC1` (relative stereo) [Example 9, N-[(3aS*,4S*,6aR*)-2-benzyloctahydrocyclopenta[c]pyrrol-4-yl]-1-phenylcyclohexanecarboxamide] was 1.04 µM; that for `O=C(N[C@H]1CC[C@H]2CN(Cc3cccc(C(F)(F)F)c3)C[C@H]21)C(O)(C1CCCCC1)C1CCCCC1` [Example 152, 2,2-dicyclohexyl-2-hydroxy-N-{(3aS,4S,6aR)-2-[3-(trifluoromethyl)benzyl]octahydrocyclopenta[c]pyrrol-4-yl}acetamide] was 0.51 µM.

The assay is the same for the next values; noted with them: read-out: IC50 (μM) or percent inhibition (* indicates 3 minute incubation, otherwise 60 minute); IC50; 60 minute pre-incubation with compound; IMR32 cells, 80 mM KCl depolarization.
With `CC(C)C[C@H](C(=O)N[C@@H]1CC[C@H]2CN(Cc3cccc(C(F)(F)F)c3)C[C@H]21)N(C)C(=O)OC(C)(C)C` (relative stereo) [Example 150, N^2-(tert-butyloxycarbonyl)-N^2-methyl-N^1-{(3aS*,4R*,6aR*)-2-[3-(trifluoromethyl)benzyl]octahydrocyclopenta[c]pyrrol-4-yl}-D-leucinamide], the IC50 was determined as 0.51 µM.

Consider `CC(C)C(C(=O)N[C@H]1CC[C@@H]2CN(CCC(c3ccccc3)c3ccccc3)C[C@@H]21)c1ccccc1` (stereo partly drawn) [Example 116, N-[(3aR,4S,6aS)-2-(3,3-diphenylpropyl)octahydrocyclopenta[c]pyrrol-4-yl]-3-methyl-2-phenylbutanamide], for which the IC50 was 1.17 µM. Same read-out and setting: the same measure for `O=S(=O)(N[C@@H]1CC[C@H]2CN(CCCCCC(c3ccc(F)cc3)c3ccc(F)cc3)C[C@H]21)c1cccc(C(F)(F)F)c1` [Example 191, N-{(3aS,4R,6aR)-2-[6,6-bis(4-fluorophenyl)hexyl]octahydrocyclopenta[c]pyrrol-4-yl}-3-(trifluoromethyl)benzenesulfonamide]: 0.51 µM; for `O=S(=O)(c1cccc(C(F)(F)F)c1)N1C[C@@H]2CC[C@@H](NC(c3ccccc3)c3ccccc3)[C@@H]2C1` [Example 467, (3aS,4R,6aR)-N-benzhydryl-2-{[3-(trifluoromethyl)phenyl]sulfonyl}octahydrocyclopenta[c]pyrrol-4-amine]: 3.5 µM.
